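Test compounds were applied to cells in 96-well plates for 48 hours at 5 doses. Abbreviation: GI50, concentration required for 50% inhibition of growth. TGI denotes the concentration required for complete inhibition of growth.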
Key:
Assay in all cases: inhibition of tumour cell growth, NCI panel, 48 h
[1] = test system: EKVX NSCLC
[2] = test system: SF-539 CNS
[3] = test system: K-562 leukemia
[4] = test system: NCI-H23 lung
[5] = test system: SN12C renal
[6] = test system: T-47D breast
[7] = test system: MDA-MB-231 breast
[8] = test system: DU-145 prostate
[9] = test system: UACC-257 melanoma
[10] = test system: SF-268 CNS
[11] = test system: NCI-H226 lung
[12] = test system: SK-OV-3 ovarian
[13] = test system: COLO 205 colon
[14] = test system: A549 NSCLC
[15] = test system: HCT-15 colon
[16] = test system: PC-3 prostate
[17] = test system: OVCAR-5 ovarian
[18] = test system: UO-31 renal
[19] = test system: SW-620 colon
[20] = test system: HOP-92 NSCLC
[21] = test system: 786-0 renal
[22] = test system: NCI-H522 lung
[23] = test system: UACC-62 melanoma
[24] = test system: CCRF-CEM leukemia
[25] = test system: OVCAR-8 ovarian
[26] = test system: MCF7 breast
[27] = test system: IGROV1 ovarian
[28] = test system: LOX IMVI melanoma
[29] = test system: CAKI-1 renal
[30] = test system: MALME-3M melanoma
[31] = test system: SK-MEL-5 melanoma
[32] = test system: HCC-2998 colon
[33] = test system: MDA-MB-435
[34] = test system: A498 renal
[35] = test system: HT29 colon
[36] = test system: RXF 393 renal
[37] = test system: OVCAR-3 ovarian
[38] = test system: SK-MEL-2 melanoma
[39] = test system: U251 CNS
[40] = test system: TK-10 renal
[41] = test system: HCT-116 colon
[42] = test system: ACHN renal
[43] = test system: SF-295 CNS
[44] = test system: NCI/ADR-RES ovarian
[45] = test system: KM12 colon
[46] = test system: NCI-H460 lung
[47] = test system: OVCAR-4 ovarian
[48] = test system: HS 578T breast
[49] = test system: RPMI-8226 leukemia
[50] = test system: SR leukemia
[51] = test system: M14 melanoma
[52] = test system: HOP-62 NSCLC
[53] = test system: SK-MEL-28 melanoma
[54] = test system: SNB-75 CNS
[55] = test system: MOLT-4 leukemia
[56] = test system: SNB-19 CNS
[57] = test system: HL-60(TB) leukemia
[58] = test system: BT-549 breast

In the case of Cc1ccc(-c2c3c(nn2-c2ccc(S(N)(=O)=O)cc2)-c2ccccc2C3)cc1, the GI50 [1] is reported as 19.5 µM, the TGI [1] is reported as 51.7 µM and the GI50 [2] is reported as 18.3 µM. For the same compound, the TGI [2] was 33.3 µM, the GI50 [3] was 16.2 µM and the TGI [3] was 53.9 µM. It also gave a GI50 [4] of 22.3 µM, a TGI [4] of 45.2 µM and a GI50 [5] of 16.9 µM. For the same compound, the TGI [5] was 36.9 µM, the GI50 [6] was 71.3 µM and the TGI [6] was > 100 µM. It also gave a GI50 [7] of 14.5 µM, a TGI [7] of 37.4 µM and a GI50 [8] of 15.6 µM. For the same compound, the TGI [8] was 33.1 µM, the GI50 [9] was 21.9 µM and the TGI [9] was 40.3 µM. It also gave a GI50 [10] of 20.3 µM, a TGI [10] of 44.7 µM and a GI50 [11] of 16.5 µM. The TGI [11] was 44 µM, the GI50 [12] was 47.3 µM and the TGI [12] was > 100 µM. For the same compound, the GI50 [13] was 23 µM, the TGI [13] was 94.9 µM and the GI50 [14] was 23.4 µM. The TGI [14] was 70.1 µM, the GI50 [15] was 20.2 µM and the TGI [15] was 42.4 µM. It also gave a GI50 [16] of 16.1 µM, a TGI [16] of 42.6 µM and a GI50 [17] of 26.1 µM. For the same compound, the TGI [17] was 63.7 µM, the GI50 [18] was 6.52 µM and the TGI [18] was 21.8 µM. It also gave a GI50 [19] of 4.4 µM, a TGI [19] of 17 µM and a GI50 [20] of 13.9 µM. It also gave a TGI [20] of 30.6 µM, a GI50 [21] of 15.2 µM and a TGI [21] of 31.8 µM. It also gave a GI50 [22] of 11.5 µM, a TGI [22] of 27.6 µM and a GI50 [23] of 11.3 µM. For the same compound, the TGI [23] was 24.1 µM, the GI50 [24] was 3.56 µM and the TGI [24] was > 100 µM. For the same compound, the GI50 [25] was 36.4 µM, the TGI [25] was > 100 µM and the GI50 [26] was 30.3 µM. The TGI [26] was > 100 µM, the GI50 [27] was 3.27 µM and the TGI [27] was 16 µM. It also gave a GI50 [28] of 18.2 µM, a TGI [28] of 40.5 µM and a GI50 [29] of 17.7 µM. It also gave a TGI [29] of 32.6 µM, a GI50 [30] of 11.6 µM and a TGI [30] of 26.5 µM. It also gave a GI50 [31] of 1.21 µM, a TGI [31] of 5.76 µM and a GI50 [32] of 8.54 µM. The TGI [32] was 25.8 µM, the GI50 [33] was 18.2 µM and the TGI [33] was 34.7 µM. For the same compound, the GI50 [34] was 6.07 µM, the TGI [34] was 21 µM and the GI50 [35] was 24.2 µM. The TGI [35] was 95.8 µM, the GI50 [36] was 17 µM and the TGI [36] was 43.7 µM. The GI50 [37] was 15.6 µM, the TGI [37] was 30 µM and the GI50 [38] was 12.2 µM. It also gave a TGI [38] of 26.6 µM, a GI50 [39] of 19 µM and a TGI [39] of 34.7 µM. For the same compound, the GI50 [40] was 19.2 µM, the TGI [40] was 38.1 µM and the GI50 [41] was 11 µM. The TGI [41] was 24.2 µM, the GI50 [42] was 19.8 µM and the TGI [42] was 35.8 µM. The GI50 [43] was 20.7 µM, the TGI [43] was 47.3 µM and the GI50 [44] was 23.4 µM. For the same compound, the TGI [44] was 68.7 µM, the GI50 [45] was 15.5 µM and the TGI [45] was 43.6 µM. For the same compound, the GI50 [46] was 19.1 µM, the TGI [46] was 43.7 µM and the GI50 [47] was 15.4 µM. The TGI [47] was 32.8 µM, the GI50 [48] was 13.5 µM and the TGI [48] was 36.2 µM. It also gave a GI50 [49] of 18.4 µM, a TGI [49] of 60.2 µM and a GI50 [50] of 15.2 µM. For the same compound, the TGI [50] was 60.2 µM, the GI50 [51] was 19.2 µM and the TGI [51] was 37.6 µM. For the same compound, the GI50 [52] was 20.6 µM, the TGI [52] was 36.1 µM and the GI50 [53] was 17.7 µM. For the same compound, the TGI [53] was 33.8 µM, the GI50 [54] was 17.5 µM and the TGI [54] was 33.8 µM. The GI50 [55] was 10.8 µM, the TGI [55] was 42.7 µM and the GI50 [56] was 37.4 µM. The TGI [56] was > 100 µM.
Oc1ccc(O)c(-c2cc(-c3ccc(Cl)cc3)nn2-c2ccccc2)c1 was tested, and the GI50 [1] was 23.9 µM, the TGI [1] was 51.1 µM and the GI50 [2] was 31 µM. It also gave a TGI [2] of 52.5 µM, a GI50 [3] of 3.23 µM and a TGI [3] of 12.1 µM. For the same compound, the GI50 [4] was 2.48 µM, the TGI [4] was 9.24 µM and the GI50 [5] was 2.88 µM. It also gave a TGI [5] of 7.19 µM, a GI50 [7] of 2.33 µM and a TGI [7] of 6.82 µM. For the same compound, the GI50 [8] was 26.1 µM, the TGI [8] was 48.3 µM and the GI50 [9] was 4.95 µM. It also gave a TGI [9] of 19.1 µM, a GI50 [10] of 2.71 µM and a TGI [10] of 12.2 µM. The GI50 [11] was 5.97 µM, the TGI [11] was 24.3 µM and the GI50 [14] was 7.56 µM. The TGI [14] was 31 µM, the GI50 [15] was 12.5 µM and the TGI [15] was 25.5 µM. For the same compound, the GI50 [57] was 5.71 µM, the TGI [57] was 64.8 µM and the GI50 [16] was 3.19 µM. The TGI [16] was 13.1 µM, the GI50 [17] was 3.11 µM and the TGI [17] was 10.7 µM. For the same compound, the GI50 [18] was 12.2 µM, the TGI [18] was > 100 µM and the GI50 [19] was 3.81 µM. For the same compound, the TGI [19] was 18.4 µM, the GI50 [20] was 2.71 µM and the TGI [20] was 22.9 µM. The GI50 [21] was 2.21 µM, the TGI [21] was 5.4 µM and the GI50 [22] was 2.4 µM. It also gave a TGI [22] of 5.44 µM, a GI50 [23] of 2.63 µM and a TGI [23] of 7.88 µM. The GI50 [24] was 3.06 µM, the TGI [24] was > 100 µM and the GI50 [25] was 4.51 µM. For the same compound, the TGI [25] was > 100 µM, the GI50 [26] was 3.88 µM and the TGI [26] was > 100 µM. The GI50 [27] was 9.95 µM, the TGI [27] was > 100 µM and the GI50 [29] was 18.8 µM. It also gave a TGI [29] of 39.6 µM, a GI50 [31] of 10.1 µM and a TGI [31] of 28.8 µM. It also gave a GI50 [32] of 2.58 µM, a TGI [32] of 4.98 µM and a GI50 [33] of 14.9 µM. The TGI [33] was 32.1 µM, the GI50 [34] was 0.755 µM and the TGI [34] was 13.8 µM. For the same compound, the GI50 [58] was 21 µM, the TGI [58] was 52.3 µM and the GI50 [37] was 14.5 µM. For the same compound, the TGI [37] was 30.7 µM, the GI50 [38] was 23.4 µM and the TGI [38] was > 100 µM. The GI50 [40] was 6.58 µM, the TGI [40] was 25.6 µM and the GI50 [42] was 18.6 µM. The TGI [42] was 32.6 µM, the GI50 [43] was 20 µM and the TGI [43] was 39.2 µM. For the same compound, the TGI [44] was 25.3 µM, the GI50 [45] was 4.14 µM and the TGI [45] was 18.4 µM. For the same compound, the GI50 [46] was 3.77 µM, the TGI [46] was > 100 µM and the GI50 [48] was 3.43 µM. The TGI [48] was 29.8 µM, the GI50 [49] was 2.29 µM and the TGI [49] was 7.03 µM. For the same compound, the GI50 [50] was 3 µM, the TGI [50] was 14.4 µM and the GI50 [51] was 2.89 µM. For the same compound, the TGI [51] was 6.53 µM, the GI50 [55] was 3.3 µM and the TGI [55] was > 100 µM.

Reference: PubChem BioAssay (NCI)
